Experimental data taken from patent publication US9733237B2, “Methods for identifying candidates for the treatment of neurodegenerative diseases” (The Trustees of Columbia University in the City of New York, priority 2012, dated 2017).
Read-outs that look alike come from different tables or passages of the source.

Tests used:
[1] = test system: SOD1^G93A (ALS) and SOD1^WT mouse embryonic stem cell-derived motor neurons; test: Two-color screen for agents preferentially toxic to ALS motor neurons (mixed WT/G93A ES-MN culture); type: cell-based; settings: for Preferential activity on ALS motor neurons: independent pair of WT and G93A lines
Experimental: GFP+ and RFP+ motor neurons were seeded in 96-well plates at equal proportions and imaged using a whole-well imaging platform (Plate Runner HD, Trophos, Marseilles, France). Live cells were scored with an automated image software (Metamorph, Molecular Devices, LLC, Sunnyvale, Calif.) using a neurite outgrowth criterion of five times the cell body diameter. Compounds from a small molecule library (Trophos) were loaded using automated liquid handling, and motor neuron survival was scored at 48 and 72 hours after exposure to stressors.
A survival ratio was calculated by dividing surviving % red cells with green cells for each well (lower left panel). Compounds eliciting ratios greater than 1.6 were considered hits (highlighted in lower left panel).
Multiple ES cell lines from SOD1^G93A mice that had been bred to a reporter strain expressing GFP under the motor neuron-specific Hb9 promoter were generated. ES cells from mice overexpressing wildtype human SOD1 (SOD1^WT) bred to mice expressing a new Hb9::RFP reporter (K. C. Kanning, unpublished) were used as controls. When differentiated in vitro using retinoic acid and an agonist of the sonic hedgehog pathway, these ES cells therefore generated green ALS motor neurons and red controls (FIG. 1A). By mixing these in equal numbers in culture, the response of ALS and control motor neurons to otherwise identical culture conditions could be quantified. This approach would reduce noise due to differences in individual culture wells, seeding density, position in incubator, etc., and that the ratio between numbers of WT and G93A cells would be a sensitive measure of selective vulnerability.
Using this assay miniaturized to a 96-well format, it was confirmed that after 3 days in either the presence or absence of a cocktail of neurotrophic factors, there was only a subtle decrease in ALS motor neuron survival relative to controls. An open-ended screen of the Tocriscreen Mini and Custom collection library of bioactive compounds was therefore performed to identify agents of known mechanism that could selectively induce death of ALS motor neurons. A total of 1,275 compounds were screened initially at a single concentration (10 μM), and those that were deemed too toxic were retested at 1 μM. […] Preferential activity on ALS motor neurons was subsequently confirmed for 4 of the hits using an independent pair of WT and G93A lines (FIG. 1B). The active compounds were: (a) capsaicin, an agonist of the […] receptor that is predominantly expressed on sensory neurons, (b) CPA (cyclopiazonic acid), which is an inhibitor of SERCA (sarco(endo)-plasmic reticulum Ca^++-ATPase) pumps, which sequester Ca^++ into the ER from the cytoplasm in an ATP-dependent manner (FIG. 2A), (c) DH97, a potent MT2 melatonin receptor antagonist, and (d) 2,3-DCPE, a compound that selectively induces apoptosis and downregulates Bcl-xL expression in human cancer vs. normal cells in vitro. The inventors focused on CPA because it induced the most robust change in the WT/G93A ratio (>3 in both combinations of ES lines) and because of the relevance of its mechanism of action to the alterations in Ca^++ handling that are characteristic of ALS motor neurons.
We first asked whether the actions of CPA were direct on motor neurons, or mediated by other cell types present in the mixed culture used for screening. […] Thus, degeneration induced by SERCA inhibition robustly differentiates between SOD1^G93A and SOD1^WT motor neurons. Neither thapsigargin nor CPA has gross effects on neuronal function. […] This provides further support for the notion that the selective effect of SERCA inhibitors on ALS motor neurons is a function of the disease.
A library of small molecule compounds (Tocriscreen Mini & Custom collection, 1275 compounds, or other collections of novel compounds) will be added at a concentration of 10 μM using automated liquid handling. The compounds will be added to the wells following the 20 hour imaging time point. […]

[2] = test system: neurons of the pre-Botzinger complex; settings: cited from earlier work
ES-MNs (G93A and WT) = test: Fura-2 calcium imaging of Ca++ release from ER stores; type: cell-based, mouse; settings: 10 μM CPA, 20 minutes
From the text: To explore potential mechanisms underlying the ALS-selective toxicity of CPA, calcium imaging in ES-MNs loaded with the calcium indicator dye Fura-2 was used. In preliminary experiments, rise and fall constants following a 5-second pulse of kainic acid were monitored, and no significant difference between the G93A and WT lines were found (FIG. 2B). […] It was hypothesized that CPA might selectively induce an imbalance in Ca^++ handling. To monitor release of Ca^++ from endoplasmic reticulum (ER) stores, ES-MNs of each genotype were incubated for 20 minutes with 10 μM CPA. An initial rapid increase of Fura-2 signal was followed by a slow recovery, as Ca^++ was sequestered by other routes, out of which mitochondria may be the main compensatory compartment.

SOD1^G93A mice = settings: in vivo; cited from earlier work

C/C=C(/C)C(=O)O[C@H]1C(C)=C2[C@H]([C@@H]1OC(=O)CCCCCCC)[C@@](C)(OC(C)=O)C[C@H](OC(=O)CCC)[C@@]1(O)[C@H]2OC(=O)[C@@]1(C)O [thapsigargin]
death of ALS motor neurons relative to controls ([1]; concentrations on the order of 1 nM): 2- to 4 fold | effect on respiratory rhythm [2]: do not affect respiratory rhythm

COc1cc(CNC(=O)CCCC/C=C/C(C)C)ccc1O [capsaicin]
Preferential activity on ALS motor neurons [1]: confirmed

CCCCC(=O)NCCc1c(Cc2ccccc2)[nH]c2ccccc12 [DH97]
Preferential activity on ALS motor neurons [1]: confirmed

OCCNCCCOc1cccc(Cl)c1Cl [2,3-DCPE]
Preferential activity on ALS motor neurons [1]: confirmed

CC(=O)C1=C(O)[C@@H]2[C@H]3c4c[nH]c5cccc(c45)C[C@H]3C(C)(C)N2C1=O [CPA, cyclopiazonic acid]
reduction in WT motor neurons numbers ([1]; 7.5 μM, after 48 hours): 40-50% | survival ratio (red WT cells/green mutant cells) ([1]; 7.5 μM, after 48 hours): 1.6-1.75 | change in the WT/G93A ratio ([1]; both combinations of ES lines): > 3 | G93A cells with greater initial Ca++ release (ES-MNs (G93A and WT)): about 40% | effect on respiratory rhythm ([2]; applied to neurons of the pre-Botzinger complex): do not affect respiratory rhythm

O=C(/C=C/c1ccccc1)NC(NC(=S)Nc1cccc2cccnc12)C(Cl)(Cl)Cl (centres unmarked) [Salubrinal]
protection in SOD1^G93A mice (SOD1^G93A mice): protective
